Experimental data: paper PMC10176470, “Engaging a Non-catalytic Cysteine Residue Drives Potent and Selective Inhibition of Caspase-6” (Journal of the American Chemical Society, 2023)
Read-outs that look alike come from different tables or passages of the source.

Tests used:
Format in all cases: cell-based
[1] = molecular target: proteins of HEK293T cells transiently overexpressing caspase-6 (Homo sapiens, UniProt Q15365); settings: protein PCBP1 (Q15365); exp_ref Probe; analysis C6
[2] = molecular target: proteins of HEK293T cells transiently overexpressing caspase-6 (Homo sapiens, UniProt Q00765); settings: protein REEP5 (Q00765)
Sequence of proteins of HEK293T cells transiently overexpressing caspase-6 (Homo sapiens, UniProt Q00765) (Q00765 whole entry): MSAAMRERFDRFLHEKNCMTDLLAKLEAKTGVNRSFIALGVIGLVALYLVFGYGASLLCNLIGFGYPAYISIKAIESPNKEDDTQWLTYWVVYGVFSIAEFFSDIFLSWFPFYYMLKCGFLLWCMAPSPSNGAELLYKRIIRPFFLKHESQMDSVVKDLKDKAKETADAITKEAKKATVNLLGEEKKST

[3] = molecular target: proteins of HEK293T cells transiently overexpressing caspase-6 (Homo sapiens, UniProt P35579); settings: Probe; protein MYH9 P35579
[4] = molecular target: proteins of HEK293T cells transiently overexpressing caspase-6 (Homo sapiens, UniProt P33992); settings: exp_ref Probe; protein MCM5 (P33992); analysis C6
[5] = molecular target: proteins of HEK293T cells transiently overexpressing caspase-6 (Homo sapiens, UniProt P13797); settings: exp_ref Probe; protein PLS3 (P13797); analysis C6
[6] = molecular target: proteins of HEK293T cells transiently overexpressing caspase-6 (Homo sapiens, UniProt Q9H3N1); settings: protein TMX1 (Q9H3N1); exp_ref Probe; analysis C6
Sequence of proteins of HEK293T cells transiently overexpressing caspase-6 (Homo sapiens, UniProt Q9H3N1) (Q9H3N1 27-280): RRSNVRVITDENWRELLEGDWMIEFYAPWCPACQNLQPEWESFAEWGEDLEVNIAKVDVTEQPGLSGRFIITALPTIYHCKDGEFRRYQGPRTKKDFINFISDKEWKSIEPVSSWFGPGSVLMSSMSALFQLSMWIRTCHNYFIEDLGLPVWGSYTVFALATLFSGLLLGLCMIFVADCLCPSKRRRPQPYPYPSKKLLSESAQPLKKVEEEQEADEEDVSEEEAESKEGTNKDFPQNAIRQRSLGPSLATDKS

[7] = molecular target: proteins of HEK293T cells transiently overexpressing caspase-6 (Homo sapiens, UniProt Q04637); settings: protein EIF4G1 (Q04637)
Sequence of proteins of HEK293T cells transiently overexpressing caspase-6 (Homo sapiens, UniProt Q04637) (Q04637 whole entry): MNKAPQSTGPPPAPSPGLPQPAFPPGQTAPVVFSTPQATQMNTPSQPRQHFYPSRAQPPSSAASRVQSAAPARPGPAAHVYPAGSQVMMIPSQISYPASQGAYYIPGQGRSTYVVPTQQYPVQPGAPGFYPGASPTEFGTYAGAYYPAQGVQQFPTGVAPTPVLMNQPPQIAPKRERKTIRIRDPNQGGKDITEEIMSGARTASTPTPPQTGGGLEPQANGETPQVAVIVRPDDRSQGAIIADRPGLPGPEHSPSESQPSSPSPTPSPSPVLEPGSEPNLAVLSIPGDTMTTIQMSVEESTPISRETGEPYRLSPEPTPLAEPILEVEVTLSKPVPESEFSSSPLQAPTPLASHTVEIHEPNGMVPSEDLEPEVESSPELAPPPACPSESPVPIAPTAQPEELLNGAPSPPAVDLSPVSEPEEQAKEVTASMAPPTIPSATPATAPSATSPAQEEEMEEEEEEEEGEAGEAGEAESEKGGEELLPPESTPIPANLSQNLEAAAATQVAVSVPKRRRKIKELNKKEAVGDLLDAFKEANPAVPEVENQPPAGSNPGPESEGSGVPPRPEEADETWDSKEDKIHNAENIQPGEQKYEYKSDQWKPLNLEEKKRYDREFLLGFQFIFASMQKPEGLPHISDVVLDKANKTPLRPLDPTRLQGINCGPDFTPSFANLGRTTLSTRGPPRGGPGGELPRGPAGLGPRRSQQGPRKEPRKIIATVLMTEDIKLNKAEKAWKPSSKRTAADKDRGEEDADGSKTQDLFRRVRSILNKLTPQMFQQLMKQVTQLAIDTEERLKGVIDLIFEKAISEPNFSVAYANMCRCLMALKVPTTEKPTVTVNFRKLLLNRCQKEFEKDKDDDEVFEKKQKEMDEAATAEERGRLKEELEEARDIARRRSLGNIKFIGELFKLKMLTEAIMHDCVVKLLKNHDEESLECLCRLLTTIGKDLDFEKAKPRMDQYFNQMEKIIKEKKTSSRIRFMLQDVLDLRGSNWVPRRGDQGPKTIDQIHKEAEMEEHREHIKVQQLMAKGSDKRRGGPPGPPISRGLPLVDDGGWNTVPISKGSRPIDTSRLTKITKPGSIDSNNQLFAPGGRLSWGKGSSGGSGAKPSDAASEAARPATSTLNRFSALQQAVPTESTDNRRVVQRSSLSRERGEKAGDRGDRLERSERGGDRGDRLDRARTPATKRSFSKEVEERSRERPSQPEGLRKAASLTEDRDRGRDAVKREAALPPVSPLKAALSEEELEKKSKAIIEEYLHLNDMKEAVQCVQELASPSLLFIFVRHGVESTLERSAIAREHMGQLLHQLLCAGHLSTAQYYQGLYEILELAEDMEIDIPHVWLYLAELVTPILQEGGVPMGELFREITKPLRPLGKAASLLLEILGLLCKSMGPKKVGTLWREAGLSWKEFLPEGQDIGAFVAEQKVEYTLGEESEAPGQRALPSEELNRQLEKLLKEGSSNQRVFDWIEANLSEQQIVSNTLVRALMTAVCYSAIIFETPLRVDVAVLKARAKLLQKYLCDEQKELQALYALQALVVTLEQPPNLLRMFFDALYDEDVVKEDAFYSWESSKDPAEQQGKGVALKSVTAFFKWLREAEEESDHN

[8] = molecular target: proteins of HEK293T cells transiently overexpressing caspase-6 (Homo sapiens, UniProt P61221); settings: exp_ref Probe; protein ABCE1 (P61221); analysis C6
[9] = molecular target: proteins of HEK293T cells transiently overexpressing caspase-6 (Homo sapiens, UniProt Q8NBS9); settings: exp_ref Probe; protein TXNDC5 (Q8NBS9); analysis C6
[10] = molecular target: proteins of HEK293T cells transiently overexpressing caspase-6 (Homo sapiens, UniProt Q9P258); settings: exp_ref Probe; protein RCC2 (Q9P258); analysis C6
[11] = molecular target: proteins of HEK293T cells transiently overexpressing caspase-6 (Homo sapiens, UniProt Q15029); settings: exp_ref Probe; protein EFTUD2 (Q15029); analysis C6
[12] = molecular target: proteins of HEK293T cells transiently overexpressing caspase-6 (Homo sapiens, UniProt Q9Y230); settings: protein RUVBL2 (Q9Y230); exp_ref Probe; analysis C6
[13] = molecular target: proteins of HEK293T cells transiently overexpressing caspase-6 (Homo sapiens, UniProt P54578); settings: Probe; protein USP14 P54578
[14] = molecular target: T1, proteins of HEK293T cells transiently overexpressing caspase-6 (Homo sapiens, UniProt P54577); settings: protein YARS (P54577), analysis C6
T1 sequence (P54577 1-528): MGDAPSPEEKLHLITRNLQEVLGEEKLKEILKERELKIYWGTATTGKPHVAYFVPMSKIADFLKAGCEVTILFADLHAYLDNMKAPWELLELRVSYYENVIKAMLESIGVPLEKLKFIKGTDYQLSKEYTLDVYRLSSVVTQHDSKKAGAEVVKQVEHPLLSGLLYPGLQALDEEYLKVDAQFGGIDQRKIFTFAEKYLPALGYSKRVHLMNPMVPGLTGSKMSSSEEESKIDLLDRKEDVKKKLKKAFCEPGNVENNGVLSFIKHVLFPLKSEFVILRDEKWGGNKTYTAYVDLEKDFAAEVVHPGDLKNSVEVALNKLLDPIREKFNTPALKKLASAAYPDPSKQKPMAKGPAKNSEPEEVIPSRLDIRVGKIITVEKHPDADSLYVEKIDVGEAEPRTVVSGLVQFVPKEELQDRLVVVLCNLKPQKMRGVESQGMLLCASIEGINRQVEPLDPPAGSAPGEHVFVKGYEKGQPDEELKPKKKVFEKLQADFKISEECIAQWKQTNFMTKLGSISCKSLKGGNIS

[15] = molecular target: proteins of HEK293T cells transiently overexpressing caspase-6 (Homo sapiens, UniProt Q9UL46); settings: protein PSME2 (Q9UL46); exp_ref Probe; analysis C6
Sequence of proteins of HEK293T cells transiently overexpressing caspase-6 (Homo sapiens, UniProt Q9UL46) (Q9UL46 whole entry): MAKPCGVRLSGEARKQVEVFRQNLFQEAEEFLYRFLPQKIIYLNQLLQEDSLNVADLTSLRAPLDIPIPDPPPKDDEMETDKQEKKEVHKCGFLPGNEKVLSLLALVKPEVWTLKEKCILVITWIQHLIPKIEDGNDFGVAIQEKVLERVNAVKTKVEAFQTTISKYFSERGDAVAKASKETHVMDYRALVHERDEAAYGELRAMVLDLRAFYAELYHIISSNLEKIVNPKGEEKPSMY

[16] = molecular target: proteins of HEK293T cells transiently overexpressing caspase-6 (Homo sapiens, UniProt Q9H7Z7); settings: protein PTGES2 (Q9H7Z7)
Sequence of proteins of HEK293T cells transiently overexpressing caspase-6 (Homo sapiens, UniProt Q9H7Z7) (Q9H7Z7 whole entry): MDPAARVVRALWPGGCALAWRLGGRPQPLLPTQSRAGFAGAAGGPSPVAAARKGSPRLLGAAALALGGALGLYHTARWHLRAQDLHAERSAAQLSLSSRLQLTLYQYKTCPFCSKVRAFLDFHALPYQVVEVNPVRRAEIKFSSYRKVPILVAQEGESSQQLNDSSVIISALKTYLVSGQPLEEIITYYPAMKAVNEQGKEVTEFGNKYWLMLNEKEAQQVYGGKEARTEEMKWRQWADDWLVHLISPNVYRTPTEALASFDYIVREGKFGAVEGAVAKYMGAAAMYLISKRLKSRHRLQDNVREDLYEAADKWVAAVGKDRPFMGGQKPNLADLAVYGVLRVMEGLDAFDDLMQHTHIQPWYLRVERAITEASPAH

[17] = molecular target: proteins of HEK293T cells transiently overexpressing caspase-6 (Homo sapiens, UniProt Q9UJU6); settings: Probe; protein DBNL Q9UJU6
[18] = molecular target: proteins of HEK293T cells transiently overexpressing caspase-6 (Homo sapiens, UniProt P12004); settings: protein PCNA (P12004)
Sequence of proteins of HEK293T cells transiently overexpressing caspase-6 (Homo sapiens, UniProt P12004) (P12004 whole entry): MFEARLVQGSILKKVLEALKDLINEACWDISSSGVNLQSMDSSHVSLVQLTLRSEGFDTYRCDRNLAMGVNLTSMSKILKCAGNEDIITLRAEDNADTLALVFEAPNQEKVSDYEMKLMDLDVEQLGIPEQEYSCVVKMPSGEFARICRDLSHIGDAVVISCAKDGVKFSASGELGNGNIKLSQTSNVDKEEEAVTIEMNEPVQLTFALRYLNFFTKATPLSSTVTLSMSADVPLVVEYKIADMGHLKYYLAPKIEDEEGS

[19] = molecular target: proteins of HEK293T cells transiently overexpressing caspase-6 (Homo sapiens, UniProt P22314); settings: exp_ref Probe; protein UBA1 (P22314); analysis C6
[20] = molecular target: proteins of HEK293T cells transiently overexpressing caspase-6 (Homo sapiens, UniProt P11388); settings: protein TOP2A (P11388)
Sequence of proteins of HEK293T cells transiently overexpressing caspase-6 (Homo sapiens, UniProt P11388) (P11388 whole entry): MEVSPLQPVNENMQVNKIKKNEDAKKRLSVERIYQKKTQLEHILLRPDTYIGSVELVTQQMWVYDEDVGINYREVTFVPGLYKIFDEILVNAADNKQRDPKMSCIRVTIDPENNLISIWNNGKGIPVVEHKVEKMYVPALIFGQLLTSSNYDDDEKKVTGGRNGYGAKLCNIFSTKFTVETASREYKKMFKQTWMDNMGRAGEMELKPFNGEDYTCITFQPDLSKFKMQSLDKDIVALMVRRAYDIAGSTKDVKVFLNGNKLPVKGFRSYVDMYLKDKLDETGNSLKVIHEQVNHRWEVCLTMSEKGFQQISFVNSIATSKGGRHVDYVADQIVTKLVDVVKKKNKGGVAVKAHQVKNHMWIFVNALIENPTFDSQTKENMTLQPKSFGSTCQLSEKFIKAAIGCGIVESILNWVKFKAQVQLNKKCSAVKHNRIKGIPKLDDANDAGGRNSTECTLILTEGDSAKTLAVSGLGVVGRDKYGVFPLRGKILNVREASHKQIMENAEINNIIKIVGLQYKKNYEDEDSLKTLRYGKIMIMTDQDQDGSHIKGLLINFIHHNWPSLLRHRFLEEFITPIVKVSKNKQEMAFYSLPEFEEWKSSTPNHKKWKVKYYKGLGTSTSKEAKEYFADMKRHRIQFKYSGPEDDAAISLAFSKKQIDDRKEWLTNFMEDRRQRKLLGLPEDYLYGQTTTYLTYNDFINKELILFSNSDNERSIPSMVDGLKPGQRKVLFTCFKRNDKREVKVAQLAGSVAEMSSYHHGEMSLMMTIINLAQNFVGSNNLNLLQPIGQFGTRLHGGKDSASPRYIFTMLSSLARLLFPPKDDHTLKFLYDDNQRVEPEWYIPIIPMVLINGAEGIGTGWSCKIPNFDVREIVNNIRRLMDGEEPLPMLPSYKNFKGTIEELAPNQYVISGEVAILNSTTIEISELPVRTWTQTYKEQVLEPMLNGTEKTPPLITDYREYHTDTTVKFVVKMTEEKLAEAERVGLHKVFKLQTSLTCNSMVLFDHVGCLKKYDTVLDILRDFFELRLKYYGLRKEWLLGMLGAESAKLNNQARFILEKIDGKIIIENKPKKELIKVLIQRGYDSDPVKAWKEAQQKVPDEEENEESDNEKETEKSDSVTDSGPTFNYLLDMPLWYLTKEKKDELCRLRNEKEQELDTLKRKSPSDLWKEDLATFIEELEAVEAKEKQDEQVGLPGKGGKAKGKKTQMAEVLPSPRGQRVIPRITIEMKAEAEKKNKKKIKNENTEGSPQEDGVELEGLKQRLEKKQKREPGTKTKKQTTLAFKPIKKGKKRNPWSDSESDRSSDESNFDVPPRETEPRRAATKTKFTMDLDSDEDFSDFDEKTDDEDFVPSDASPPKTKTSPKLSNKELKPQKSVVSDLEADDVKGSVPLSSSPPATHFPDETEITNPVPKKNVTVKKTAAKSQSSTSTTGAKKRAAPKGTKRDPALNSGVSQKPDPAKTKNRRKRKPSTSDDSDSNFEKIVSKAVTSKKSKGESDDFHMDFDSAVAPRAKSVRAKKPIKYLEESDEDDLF

[21] = molecular target: proteins of HEK293T cells transiently overexpressing caspase-6 (Homo sapiens, UniProt Q9UBE0); settings: protein SAE1 (Q9UBE0); exp_ref Probe; analysis C6
Sequence of proteins of HEK293T cells transiently overexpressing caspase-6 (Homo sapiens, UniProt Q9UBE0) (Q9UBE0 whole entry): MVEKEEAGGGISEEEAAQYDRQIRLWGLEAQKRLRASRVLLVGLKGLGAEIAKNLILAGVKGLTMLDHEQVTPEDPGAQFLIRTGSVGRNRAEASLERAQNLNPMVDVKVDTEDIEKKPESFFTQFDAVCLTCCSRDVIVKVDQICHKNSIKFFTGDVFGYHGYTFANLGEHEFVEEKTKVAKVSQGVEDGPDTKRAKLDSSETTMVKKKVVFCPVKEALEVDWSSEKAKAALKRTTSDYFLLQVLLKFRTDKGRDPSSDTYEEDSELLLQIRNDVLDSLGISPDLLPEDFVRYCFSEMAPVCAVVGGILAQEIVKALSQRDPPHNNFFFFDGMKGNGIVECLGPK

## C#CCOc1ccc([C@@H]2C[C@@H](C(=O)Nc3ccc(OC(F)(F)F)cc3)CN(S(=O)(=O)C=C)C2)cc1 (relative stereo) [13-t]
[1]
  enrich.exp.med: 1.571
[2]
  enrich.exp.med.lin: 12.9915
  enrich.exp.med.log2: 3.6995
[2]; Expt Probe, analysis C6
  enrich.exp.med.lin: 12.9915
  enrich.exp.med.log2: 3.6995
[2]; exp_ref Probe, analysis C6
  enrich.exp.med: 3.6995
[3]
  enrich.exp.med: -0.6242
[4]
  enrich.exp.med: 1.028
[5]
  enrich.exp.med: 0.7997
[6]
  enrich.exp.med: 2.103
[7]; exp_ref Probe, analysis C6
  enrich.exp.med: 0.9115
[7]
  enrich.exp.med.lin: 1.881
  enrich.exp.med.log2: 0.9115
[8]
  enrich.exp.med: -0.002133
[9]
  enrich.exp.med: 0.5284
[10]
  enrich.exp.med: 0.2232
[11]
  enrich.exp.med: 0.4056
[12]
  enrich.exp.med: 1.2493
[13]
  enrich.exp.med: -0.5802
[14]; Expt Probe
  enrich.exp.med.lin: 10.7591
  enrich.exp.med.log2: 3.427
[14]; exp_ref Probe
  enrich.exp.med: 3.427
[15]
  enrich.exp.med: 1.487
[16]
  enrich.exp.med.lin: 8.188
  enrich.exp.med.log2: 3.034
[16]; Expt Probe, analysis C6
  enrich.exp.med.lin: 8.188
  enrich.exp.med.log2: 3.034
[16]; exp_ref Probe, analysis C6
  enrich.exp.med: 3.034
[17]
  enrich.exp.med: -0.5155
[18]; exp_ref Probe, analysis C6
  enrich.exp.med: 0.8638
[18]
  enrich.exp.med.lin: 1.82
  enrich.exp.med.log2: 0.8638
[19]
  enrich.exp.med: 0.3187
[20]
  enrich.exp.med.lin: 3.929
  enrich.exp.med.log2: 1.974
[20]; exp_ref Probe, analysis C6
  enrich.exp.med: 1.974
[21]
  enrich.exp.med: 1.338
